From ChEMBL document CHEMBL5325392, “Development of 3α,7α-dihydroxy-6α-ethyl-24-nor-5β-cholan-23-sulfate sodium salt (INT-767): Process optimization, synthesis and characterization of metabolites” (Eur J Med Chem, 2022) come the findings set out here.

In assay [1] the target is T1, G-protein coupled bile acid receptor 1 (Homo sapiens, UniProt Q8TDU6).
T1 sequence (Q8TDU6 whole entry): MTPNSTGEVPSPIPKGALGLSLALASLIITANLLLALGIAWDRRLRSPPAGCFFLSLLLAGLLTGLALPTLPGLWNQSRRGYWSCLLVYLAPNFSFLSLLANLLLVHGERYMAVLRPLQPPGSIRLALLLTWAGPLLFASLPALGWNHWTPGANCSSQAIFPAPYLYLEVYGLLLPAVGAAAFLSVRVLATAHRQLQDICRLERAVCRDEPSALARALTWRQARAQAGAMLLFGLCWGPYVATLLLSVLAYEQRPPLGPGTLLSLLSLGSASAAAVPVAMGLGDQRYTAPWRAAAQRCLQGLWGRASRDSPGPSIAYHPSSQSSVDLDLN
Description: Agonist activity at TGR5 receptor in human NCI-H716 cells assessed as activation of intracellular cAMP production incubated for 1 hr by HTR-FRET assay. It is filed as functional, cell-based.

The target in assay [2] is T2, Bile acid receptor (Homo sapiens) (UniProt Q96RI1).
T2 sequence (whole entry): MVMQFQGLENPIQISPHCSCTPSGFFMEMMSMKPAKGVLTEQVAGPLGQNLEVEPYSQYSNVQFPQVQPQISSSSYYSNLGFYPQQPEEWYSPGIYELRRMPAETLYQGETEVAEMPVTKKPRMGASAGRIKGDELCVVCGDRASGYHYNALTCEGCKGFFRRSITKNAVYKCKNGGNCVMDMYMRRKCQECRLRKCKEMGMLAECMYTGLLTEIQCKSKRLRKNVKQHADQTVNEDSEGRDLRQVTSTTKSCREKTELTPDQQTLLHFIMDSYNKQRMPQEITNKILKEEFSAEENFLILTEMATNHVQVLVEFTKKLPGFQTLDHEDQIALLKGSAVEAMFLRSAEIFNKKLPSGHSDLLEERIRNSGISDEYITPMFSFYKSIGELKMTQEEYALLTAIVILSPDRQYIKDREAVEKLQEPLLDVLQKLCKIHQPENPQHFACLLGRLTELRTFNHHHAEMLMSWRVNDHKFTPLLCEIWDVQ
The assay can be described thus: Agonist activity at glutathione transferase-tagged human FXR ligand binding domain assessed as biotinylated Src1 peptide recruitment incubated for 30 mins by AlphaScreen assay relative to CDCA. Particulars: filed as agonist.

Assay [3] concerns the target T3, Bile acid receptor (Homo sapiens, UniProt Q96RI1).
T3 sequence (Q96RI1 whole entry): T2 sequence (whole entry)
The assay can be described thus: Agonist activity at glutathione transferase-tagged human FXR ligand binding domain assessed as biotinylated Src1 peptide recruitment incubated for 30 mins by AlphaScreen assay.

Turning to `CC[C@H]1[C@@H](O)[C@@H]2[C@H](CC[C@]3(C)[C@@H]([C@H](C)CCO)CC[C@@H]23)[C@@]2(C)CC[C@@H](O)C[C@@H]12`, the EC50 in assay [1] was 1.1 µM; in assay [3], 1.2 µM. For the same molecule, the Efficacy in assay [2] was determined as 165%.

As to `CC[C@H]1[C@@H](O)[C@@H]2[C@H](CC[C@]3(C)[C@@H]([C@H](C)CCOS(=O)(=O)O)CC[C@@H]23)[C@@]2(C)CCC(=O)C[C@@H]12`, the EC50 in assay [1] was 5 µM; in assay [3], 0.08 µM. The Efficacy in assay [2] stood at 162%.

Turning to `CC[C@H]1[C@@H](O)[C@@H]2[C@H](CC[C@]3(C)[C@@H]([C@H](C)CCOS(=O)(=O)O)CC[C@@H]23)[C@@]2(C)CC[C@@H](O[C@@H]3O[C@H](CC(=O)O)[C@@H](O)[C@H](O)[C@H]3O)C[C@@H]12`, the EC50 in assay [1] was over 100 µM; in assay [3], 5 µM. Besides, the Efficacy in assay [2] was 115%.

Take `CC[C@H]1[C@@H](O)[C@@H]2[C@H](CC[C@]3(C)[C@@H]([C@H](C)CCOS(=O)(=O)O)CC[C@@H]23)[C@@]2(C)CC[C@@H](OS(=O)(=O)O)C[C@@H]12`: the EC50 in assay [1] and in assay [3] was over 100 µM throughout.
